Reference: ChEMBL document CHEMBL1149305, “Charge and substituent effects on affinity and metabolism of benzbromarone-based CYP2C19 inhibitors” (J Med Chem, 2004)

Tests used:
[1] = target: Cytochrome P450 2C19 (Homo sapiens, UniProt P33261); experiment: Inhibition of human CYP2C19; format: ADME
[2] = Dissociation constant, pKa of the compound; format: physicochemical
[3] = target: Cytochrome P450 2C9 (Homo sapiens, UniProt P11712); experiment: Inhibition of human CYP2C9
Sequence of Cytochrome P450 2C9 (P11712 whole entry): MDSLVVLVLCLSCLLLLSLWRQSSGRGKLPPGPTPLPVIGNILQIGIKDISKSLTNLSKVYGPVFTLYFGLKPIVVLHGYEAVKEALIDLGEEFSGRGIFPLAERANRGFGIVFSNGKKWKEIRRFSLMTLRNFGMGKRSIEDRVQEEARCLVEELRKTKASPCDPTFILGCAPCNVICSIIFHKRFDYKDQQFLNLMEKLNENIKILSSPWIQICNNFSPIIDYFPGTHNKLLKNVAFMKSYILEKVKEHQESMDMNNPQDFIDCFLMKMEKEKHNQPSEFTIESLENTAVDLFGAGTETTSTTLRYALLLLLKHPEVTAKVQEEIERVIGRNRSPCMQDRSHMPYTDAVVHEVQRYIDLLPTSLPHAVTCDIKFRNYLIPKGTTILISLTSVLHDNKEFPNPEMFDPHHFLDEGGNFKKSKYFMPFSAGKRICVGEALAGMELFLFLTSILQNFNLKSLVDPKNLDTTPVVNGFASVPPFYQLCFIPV

Sequence of Cytochrome P450 2C19 (P33261 whole entry): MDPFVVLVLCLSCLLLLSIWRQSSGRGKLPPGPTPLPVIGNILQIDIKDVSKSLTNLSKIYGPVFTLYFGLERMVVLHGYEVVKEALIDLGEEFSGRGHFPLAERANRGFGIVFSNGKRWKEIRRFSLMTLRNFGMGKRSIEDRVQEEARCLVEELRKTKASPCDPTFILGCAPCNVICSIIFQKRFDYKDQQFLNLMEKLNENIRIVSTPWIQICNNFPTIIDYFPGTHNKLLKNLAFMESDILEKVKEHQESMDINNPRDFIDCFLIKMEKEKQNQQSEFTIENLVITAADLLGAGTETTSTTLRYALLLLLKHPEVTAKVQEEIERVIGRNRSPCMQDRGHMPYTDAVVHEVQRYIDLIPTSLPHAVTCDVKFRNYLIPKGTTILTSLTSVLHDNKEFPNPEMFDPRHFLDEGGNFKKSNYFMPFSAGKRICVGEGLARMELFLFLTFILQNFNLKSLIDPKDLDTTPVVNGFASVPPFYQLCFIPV

Row | Compound | Ki [1] | pKa [2] | Activity [2] | Ki [3]
1 | CCc1oc2ccccc2c1C(O)c1cc(Br)c(O)c(Br)c1 (configuration not stated) | 300 nM | 8.8 | – | –
2 | CCc1oc2ccccc2c1C(=O)c1cc(C)c(OC)c(C)c1 | 250 nM | – | Not Active | –
3 | CCc1oc2ccccc2c1C(=O)c1cc(Cl)nc(Cl)c1 | 13000 nM | – | Not Active | –
4 | CCc1oc2ccccc2c1C(=O)c1cc(C)c(O)c(C)c1 | 33 nM | 8.5 | – | 40 nM
5 | CCc1oc2ccccc2c1C(=O)c1ccc(N(C)C)cc1 | 3700 nM | – | Not Active | –
6 | COc1ccc(C(=O)c2c(C)oc3ccccc23)cc1 | 4500 nM | – | Not Active | –
7 | Cc1oc2ccccc2c1C(=O)c1ccc(O)cc1 | 2500 nM | 8.4 | – | –
8 | Cc1oc2ccccc2c1C(=O)c1cccc(O)c1 | 4500 nM | 8.4 | – | –
9 | Cc1oc2ccccc2c1C(=O)C1CCCCC1 | 13000 nM | – | Not Active | –

More lines, main results first:

Row | Ki [1] | pKa [2] | Activity [2] | Compound | Ki [3]
10 | 2400 nM | – | – | Cc1oc2ccccc2c1C(=O)c1cc(Br)c(O)c(Br)c1 | –
11 | 7200 nM | 5.2 | – | Cc1oc2ccccc2c1C(=O)c1cc(I)c(O)c(I)c1 | –
12 | 1600 nM | 8.6 | – | CCc1oc2ccccc2c1C(=O)Cc1cc(Br)c(O)c(Br)c1 | –
13 | 370 nM | – | Not Active | CCc1oc2ccccc2c1C(=O)c1cc(Br)c(OC)c(Br)c1 | –
14 | – | 4.5 | – | CCc1oc2ccccc2c1C(=O)c1cc(Br)c(O)c(Br)c1 [BENZBROMARONE] | –
